Article PMC5034536, “Molecular insights into substrate recognition and catalytic mechanism of the chaperone and FKBP peptidyl-prolyl isomerase SlyD” (BMC Biology, 2016)
Where “and” joins values, the source holds several entries; their conditions need not be identical. Equal values may be shown once.

Key:
TtSlyDFL N35A = TtSlyDFL N35A (Thermus thermophilus, UniProt Q5SLE7, N35A); experiment: Tetrapeptide activity by NMR lineshape analysis
Procedure: (§3) Although the kcat/KM and KD values refer to different substrates, this analysis should provide valuable insights into the relative impact of a given mutation on binding and turnover.
(§4) NMR samples contained TtSlyD in 20 mM HEPES, 100 mM NaCl, pH 7.5, and 10 % (v/v) D2O. All experiments were performed at a static magnetic field strength of 14.1 T and a temperature of 25 °C. […] Lineshape analysis was performed using MATLAB.
(§5) For tetrapeptide activity studies, one-dimensional ^1H spectra of 500 μM suc-ALPF-pNA tetrapeptide containing 2 μM, 4 μM, or 6 μM of TtSlyD were recorded for the different mutants [59].

TtSlyDFL Y63A = TtSlyDFL Y63A (Thermus thermophilus, UniProt Q5SLE7, Y63A); experiment: Tetrapeptide activity by NMR lineshape analysis
TtSlyDFL Y63A, sequence (Q5SLE7 entry or part of it Y63A): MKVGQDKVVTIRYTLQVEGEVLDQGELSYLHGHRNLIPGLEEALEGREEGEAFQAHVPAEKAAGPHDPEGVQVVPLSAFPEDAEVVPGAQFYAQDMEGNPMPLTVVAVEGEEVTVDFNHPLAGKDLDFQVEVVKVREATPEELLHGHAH
Procedure: as §4, §5

TtSlyDΔIF = experiment: Tetrapeptide cis/trans isomerization activity by NMR lineshape analysis; format: biochemical, Thermus thermophilus
Text: (§1) In order to accurately measure the catalytic activity of TtSlyDFL on peptidyl-prolyl cis/trans isomerization, we carried out Michaelis-Menten studies under equilibrium conditions using NMR lineshape analysis, which is capable of monitoring the rate of exchange between cis and trans conformations of the peptide substrate. Initially, we benchmarked the method against literature data using the standard suc-ALPF-pNA tetrapeptide (Fig. 7a). […] For the TtSlyDΔIF construct, we obtained kcat/KM = 0.85 ± 0.01 μM^−1s^−1, showing a minor influence of the IF domain.
(§2) Lineshape analysis was performed using MATLAB.

TtSlyDFL = experiment: as above; format: biochemical, Thermus thermophilus
Text: as §1, §2

E. coli SlyD = details: estimated, E. coli SlyD at high salt concentration; cited from earlier work
TtSlyDFL I37G = TtSlyDFL I37G (Thermus thermophilus, UniProt Q5SLE7, I37G); experiment: Tetrapeptide activity by NMR lineshape analysis
TtSlyDFL I37G, sequence (Q5SLE7 entry or part of it I37G): as the sequence (Q5SLE7 entry or part of it Y63A) above, with I37G, A63Y counted along it
Procedure: as §3, §4, §5

TtSlyDFL H119A = TtSlyDFL H119A (Thermus thermophilus, UniProt Q5SLE7, H119A); experiment: Tetrapeptide activity by NMR lineshape analysis
TtSlyDFL H119A, sequence (Q5SLE7 entry or part of it H119A): as the sequence (Q5SLE7 entry or part of it Y63A) above, with A63Y, H119A counted along it
Procedure: (§6) NMR samples contained TtSlyD in 20 mM HEPES, 100 mM NaCl, pH 7.5, and 10 % (v/v) D2O. All experiments were performed at a static magnetic field strength of 14.1 T and a temperature of 25 °C. The spectra were processed with NMRpipe [57] and analyzed with NMRview [58], except one-dimensional spectra, which were processed and analyzed using VNMRJ (Agilent, Inc.). Lineshape analysis was performed using MATLAB.
as §5

TtSlyDFL F128A = TtSlyDFL F128A (Thermus thermophilus, UniProt Q5SLE7, F128A); experiment: Tetrapeptide activity by NMR lineshape analysis
TtSlyDFL F128A, sequence (Q5SLE7 entry or part of it F128A): as the sequence (Q5SLE7 entry or part of it Y63A) above, with A63Y, F128A counted along it
Procedure: as §6, §5

TtSlyDFL Y13F = TtSlyDFL Y13F (Thermus thermophilus, UniProt Q5SLE7, Y13F); experiment: Tetrapeptide activity by NMR lineshape analysis
TtSlyDFL Y13F, sequence (Q5SLE7 entry or part of it Y13F): as the sequence (Q5SLE7 entry or part of it Y63A) above, with Y13F, A63Y counted along it
Procedure: as §3, §4, §5

TtSlyDFL D23A = TtSlyDFL D23A (Thermus thermophilus, UniProt Q5SLE7, D23A); experiment: Tetrapeptide activity by NMR lineshape analysis
TtSlyDFL D23A, sequence (Q5SLE7 entry or part of it D23A): as the sequence (Q5SLE7 entry or part of it Y63A) above, with D23A, A63Y counted along it
Procedure: as §3, §4, §5

TtSlyDFL Y92A = TtSlyDFL Y92A (Thermus thermophilus, UniProt Q5SLE7, Y92A); experiment: Tetrapeptide activity by NMR lineshape analysis
TtSlyDFL Y92A, sequence (Q5SLE7 entry or part of it Y92A): as the sequence (Q5SLE7 entry or part of it Y63A) above, with A63Y, Y92A counted along it
Procedure: as §4, §5

human FKBP12 = human FKBP12 with suc-ALPF-pNA as a substrate; ref U Weininger, unpublished data; cited from earlier work
TtSlyDFL A78G = TtSlyDFL A78G (Thermus thermophilus, UniProt Q5SLE7, A78G); experiment: Tetrapeptide activity by NMR lineshape analysis
TtSlyDFL A78G, sequence (Q5SLE7 entry or part of it A78G): as the sequence (Q5SLE7 entry or part of it Y63A) above, with A63Y, A78G counted along it
Procedure: as §4, §5

TtSlyDFL Y63F = TtSlyDFL Y63F (Thermus thermophilus, UniProt Q5SLE7, Y63F); experiment: Tetrapeptide activity by NMR lineshape analysis
TtSlyDFL Y63F, sequence (Q5SLE7 entry or part of it Y63F): as the sequence (Q5SLE7 entry or part of it Y63A) above, with A63F counted along it
Procedure: as §3, §4, §5

TtSlyDFL Q94A = TtSlyDFL Q94A (Thermus thermophilus, UniProt Q5SLE7, Q94A); experiment: Tetrapeptide activity by NMR lineshape analysis
TtSlyDFL Q94A, sequence (Q5SLE7 entry or part of it Q94A): as the sequence (Q5SLE7 entry or part of it Y63A) above, with A63Y, Q94A counted along it
Procedure: as §4, §5

TtSlyDFL M96A = TtSlyDFL M96A (Thermus thermophilus, UniProt Q5SLE7, M96A); experiment: Tetrapeptide activity by NMR lineshape analysis
TtSlyDFL M96A, sequence (Q5SLE7 entry or part of it M96A): as the sequence (Q5SLE7 entry or part of it Y63A) above, with A63Y, M96A counted along it
Procedure: as §4, §5

[1] = substrate 500 μM suc-ALPF-pNA, NMR lineshape analysis, 25 °C
[2] = suc-ALPF-pNA, relative to wild-type TtSlyDFL

TtSlyDFL N35A, sequence (Q5SLE7 entry or part of it N35A): as the sequence (Q5SLE7 entry or part of it Y63A) above, with N35A, A63Y counted along it

Substance: succinyl-Ala-Leu-Pro-Phe-4-nitroanilide [suc-ALPF-pNA]
- Activity (kcat/KM) (TtSlyDFL N35A; [1]): 1.04 ± 0.28 10^6 M/s
- Relative activity (TtSlyDFL N35A; [2]): 71%
- Activity (kcat/KM) (TtSlyDFL Y63A; [1]): 0.31 ± 0.19 10^6 M/s
- Relative activity (TtSlyDFL Y63A; [2]): 21%
- kcat/KM (TtSlyDΔIF; 500 μM suc-ALPF-pNA, enzyme concentration varied, linear regression, 25 °C): 0.85 ± 0.01 10^6 M^−1s^−1
- Activity (kcat/KM) (TtSlyDΔIF; [1]): 0.85 ± 0.01 10^6 M^-1 s^-1
- kcat/KM (TtSlyDΔIF; suc-ALPF-pNA as substrate, NMR lineshape analysis, 25 °C): 0.85 ± 0.01 µM⁻¹ s⁻¹
- Relative activity (TtSlyDΔIF; [2]): 58%
- kcat (TtSlyDFL; TtSlyD, suc-ALPF-pNA tetrapeptide as substrate): > 10,000 s^−1
- kcat/KM (TtSlyDFL; TtSlyDFL, 500 μM suc-ALPF-pNA, enzyme concentration varied, linear regression, 25 °C): 1.47 ± 0.05 10^6 M^−1s^−1 and 1.5 10^6 M^−1s^−1
- Activity (kcat/KM) (TtSlyDFL; wild-type TtSlyDFL, substrate 500 μM suc-ALPF-pNA, NMR lineshape analysis, 25 °C): 1.47 ± 0.05 10^6 M^-1 s^-1
- kcat/KM (TtSlyDFL; wild-type TtSlyDFL, suc-ALPF-pNA as substrate, NMR lineshape analysis, equilibrium conditions, 25 °C): 1.47 ± 0.05 µM⁻¹ s⁻¹
- Relative activity (TtSlyDFL; wild-type TtSlyDFL, suc-ALPF-pNA, reference): 100%
- Kd (E. coli SlyD): ~44 µM
- Activity (kcat/KM) (TtSlyDFL I37G; [1]): 0.73 ± 0.12 10^6 M/s
- Relative activity (TtSlyDFL I37G; [2]): 50%
- Activity (kcat/KM) (TtSlyDFL H119A; [1]): 1.23 ± 0.02 10^6 M/s
- Relative activity (TtSlyDFL H119A; [2]): 84%
- Activity (kcat/KM) (TtSlyDFL F128A; [1]): 0.52 ± 0.16 10^6 M/s
- Relative activity (TtSlyDFL F128A; [2]): 35%
- Activity (kcat/KM) (TtSlyDFL Y13F; [1]): 1.35 ± 0.17 10^6 M/s
- Relative activity (TtSlyDFL Y13F; [2]): 92%
- Activity (kcat/KM) (TtSlyDFL D23A; [1]): 1.15 ± 0.21 10^6 M/s
- Relative activity (TtSlyDFL D23A; [2]): 78%
- Activity (kcat/KM) (TtSlyDFL Y92A; [1]): 0.53 ± 0.12 10^6 M/s
- Relative activity (TtSlyDFL Y92A; [2]): 36%
- kcat (human FKBP12): above 10,000 s^−1
- Activity (kcat/KM) (TtSlyDFL A78G; [1]): 0.76 ± 0.14 10^6 M/s
- Relative activity (TtSlyDFL A78G; [2]): 52%
- Activity (kcat/KM) (TtSlyDFL Y63F; [1]): 1.12 ± 0.11 10^6 M/s
- Relative activity (TtSlyDFL Y63F; [2]): 76%
- Activity (kcat/KM) (TtSlyDFL Q94A; [1]): 1.44 ± 0.49 10^6 M/s
- Relative activity (TtSlyDFL Q94A; [2]): 98%
- Activity (kcat/KM) (TtSlyDFL M96A; [1]): 0.58 ± 0.15 10^6 M/s
- Relative activity (TtSlyDFL M96A; [2]): 39%
